Data taken from article PMC12030284, “Anti-Breast Cancer Properties and In Vivo Safety Profile of a Bis-Carbazole Derivative” (Pharmaceutics, 2025).
Values belong to the compound of their own block, whether it stands above or below them.

How the values were obtained:
[1] = system: MCF-7 human breast cancer cells; assay: MTT cell viability assay, MCF-7; type: cell-based; conditions: for IC50: Homo sapiens, MCF7, MTT, 72 h, mean ± SD of three experiments; for SI MCF-7: ratio of IC50 values for normal (MCF-10A) and cancer cells (MCF-7)
Method: (§1) The three cell lines adopted in this work (MCF-7, MDA-MB-231 and MCF-10A) were obtained from the American Type Culture Collection (ATCC, Manassas, VA, USA). MCF-7 human breast cancer cells were cultured in Dulbecco’s modified Eagle’s medium/nutrient mixture Ham F-12 (DMEM/F12), added with 10% fetal bovine serum (FBS) and 100 U mL^−1 penicillin/streptomycin. MDA-MB-231 human breast cancer cells were maintained in DMEM/F12 added with 5% FBS, 1% L-glutamine and 100 U mL^−1 penicillin/streptomycin. MCF-10A human mammary epithelial cells were cultured in DMEM/F12 medium added with 5% horse serum (HS, Thermo Fisher Scientific, Milan, Italy), 100 U mL^−1 penicillin/streptomycin, 0.5 mg mL^−1 hydrocortisone, 20 ng mL^−1 human epidermal growth factor (hEGF), 10 mg mL^−1 insulin, and 0.1 mg mL^−1 cholera enterotoxin (Sigma–Aldrich, Milan, Italy). Cells were cultured at 37 °C in a humidified atmosphere (95% air and 5% CO2) and periodically screened for checking contamination.
(§2) The 3-(4,5-dimethylthiazol-2-y1)-2,5-diphenyltetrazolium Bromide (MTT, Sigma–Aldrich, Milan, Italy) assay was used for determining cell viability. Cells were seeded on forty-eight well plates and cultured in a complete medium. Next, cells were serum-deprived (24 h). Then, cells were exposed to the tested compounds in phenol-red-free medium added with 1% of serum for 72 h. After medium removal, MTT solution was added to each well (0.5 mg/mL) and incubated at 37 °C (2 h). Cells were lysed (DMSO), and the optical density was measured (570 nm) using a microplate reader. Mean absorbance was reported as a percentage versus control, and IC50 values were calculated using GraphPad Prism 8 software (version 8.4.3., GraphPad Inc., San Diego, CA, USA). The selectivity index was obtained by the ratio of IC50 values calculated for normal and cancer cells. Data represent three independent experiments; standard deviations (SD) were reported.

[2] = system: MDA-MB-231 human breast cancer cells; assay: MTT cell viability assay, MDA-MB-231; type: cell-based; conditions: for IC50: Homo sapiens, MDA-MB-231, MTT, 72 h, mean ± SD of three experiments
Method: as §1, §2

[3] = system: MCF-10A human mammary epithelial cells; assay: MTT cell viability assay, MCF-10A; type: cell-based; conditions: 72 h, normal cells, mean ± SD of three experiments
Method: as §1, §2

MDA-MB-231 cells = assay: TUNEL assay (nuclear DNA damage / apoptosis); type: cell-based, human; conditions: 0.3 µM, 24 h
Method: The TUNEL assay was used for apoptosis detection, according to the manufacturer’s instructions (CF^TM488A TUNEL Assay Apoptosis Detection Kit, Biotium, Hayward, CA, USA), with some modifications (ref). Shortly, cells were grown on glass coverslips, then treated with 1 at its IC50 value. After that, they were PBS washed thrice, then methanol-fixed (−20 °C, 15 min). Cells were fixed and incubated with the enzyme and, next, counterstained with DAPI (0.2 mg mL^−1) (10 min, room temperature). Cells were washed three times with cold PBS; the mounting solution was added and observed and imaged using a fluorescence microscope (Leica DM6000, Leica Microsystems Srl, Milan, I-20090, Italy; 20× magnification) with excitation/emission wavelength maxima of 490 nm/515 nm (CF^TM488A) or 350 nm/460 nm (DAPI). Images represent two independent experiments, and representative fields were shown.

caspase-3/7 = assay: Caspase-Glo 3/7 assay; type: cell-based, human; conditions: MDA-MB-231 cells, 0.3 µM, 24 h, versus DMSO-treated cells
Method: (§3) Caspases-3/7, -8, and -9 activities were determined using the Caspase-Glo® 3/7, 8, and 9 Assay Systems (Promega Corporation, Madison, WI, USA) as previously described.

caspase-8 = assay: Caspase-Glo 8 assay; type: cell-based, human; conditions: MDA-MB-231 cells, 0.3 µM, 24 h, versus DMSO-treated cells
Method: as §3

caspase-9 = assay: Caspase-Glo 9 assay; type: cell-based, human; conditions: MDA-MB-231 cells, 0.3 µM, 24 h, versus DMSO-treated cells
Method: as §3

Bid = Bid immunofluorescence and mitochondria staining; type: cell-based, human; conditions: MDA-MB-231 cells, 0.3 µM, 24 h
Method: (§4) Cells grown on glass coverslips in full medium were serum-deprived for 24 h and exposed to 1 for 24 h at its IC50 value concentration. Cells were PBS-washed and fixed (cold methanol, 15 min, −20 °C), then primary antibody in blocking solution was added (4 °C/overnight), as described. The mouse anti-Bid (sc-373939) and anti-β-Actin (69879) and the rabbit anti-β Tubulin (9104) were obtained from Santa Cruz Biotechnology and employed at a 1:100 dilution. Coverslips were washed thrice with PBS, then the secondary antibody Alexa Fluor® 568 conjugate goat-anti-mouse and Alexa Fluor® 488 conjugate goat-anti-rabbit (1:500, Thermo Fisher Scientific, Waltham, MA, USA) was added. Nuclei were DAPI (Sigma Aldrich, Mila, Italy) stained (10 min, 0.2 μg/mL) and PBS washed thrice. For mitochondrial staining, cells were pre-incubated with prewarmed (37 °C) MitoTracker® Deep Red FM probe solution (MitoTracker® Mitochondrion-Selective Probes, Invitrogen European Headquarters, Paisley PA4 9RF, UK) for 20 min (fluorescence excitation = 644, fluorescence emission = 665). A fluorescence microscope (Leica DM 6000) and LAS-X software (Leica Application Suite X, 3.5.7.23225) were used to acquire and process all images.

tubulin = assay: In vitro tubulin polymerization assay; type: biochemical; conditions: for final OD350 value of tubulin polymerization: control reaction (DMSO) about 0.41
Method: The tubulin polymerization inhibition was detected using the in vitro Tubulin Polymerization Assay Kit (EMD Millipore Corporation, Burlington, MA, USA), following the procedure previously published. Briefly, polymerization reactions were performed in 70 µL final volumes (60 µL of the 60 µM tubulin in 1xPB-GTP and 10 µL of the test substance dissolved in 1xPB-GTP). Paclitaxel and Vinblastine (both at 10 µM) and 1 (1 µM) were dissolved in DMSO. The turbidity variation was measured every 30 s at 350 nm for 90 min. Turbidity (absorbance) readings were used to determine the extent of polymerization [% inhibition = (1 − A350 sample/A350 control) × 100].

[4] = system: microtubule network in MDA-MB-231 cells; assay: β-tubulin immunofluorescence; type: cell-based, human; conditions: 24 h
Method: as §4

[5] = system: actin network in MDA-MB-231 cells; assay: β-actin immunofluorescence; type: cell-based, human; conditions: 0.3 µM, 24 h
Method: as §4

Balb/c mice = assay: In vivo safety study, one-week intraperitoneal administration; parameters: species or system mouse; conditions: 20 mg/kg i.p.
Method: Animals: The study utilized male Balb/c mice aged 6–8 weeks, with weights ranging from 22 to 26 g. These mice were sourced from a reputable supplier and maintained in a certified pathogen-free facility. They were housed in polycarbonate cages under controlled environmental conditions (temperature: 20–22 °C; humidity: 40–60%) with a 12 h light/dark cycle. Mice had ad libitum access to filtered water and a standard rodent chow diet, ensuring their nutritional needs were met throughout the study.
Preparation of Test Item: The investigational solution that contains the compound 1 was prepared before administration to ensure its stability and efficacy. The preparation involved dissolving compound 1 in a solvent mixture comprising 5% ethanol and Cremophor, diluted in 95% phosphate-buffered saline (PBS). […] All solutions were prepared in a sterile environment to minimize the risk of contamination.
Experimental Design: Mice were randomly assigned to one of two experimental groups to eliminate bias in treatment effects. Group 1 (negative control) consisted of six mice that received intraperitoneal injections of the vehicle solvent (5% ethanol–Cremophor in 95% PBS). Group 2 (compound 1 treatment group) comprised seven mice receiving compound 1 at a dosage of 20 mg/kg body weight, administered via intraperitoneal injection. The dosage was selected based on preliminary dose–response studies ensuring safety and efficacy.
Treatment Protocol: The treatment regimen involved administering injections every two days over a one-week period, culminating in a total of three injections per mouse. This schedule was designed to maintain consistent therapeutic levels of compound 1 in the bloodstream, providing sufficient time for both pharmacological effects and assessment of any potential adverse reactions.
Assessment Parameters: Behavioral observations were meticulously recorded on a daily basis throughout the treatment period. Trained personnel monitored the mice for signs of toxicity or any deviations from normal behavior, including changes in activity levels, grooming patterns, and feeding behavior [35]. Body weight was measured at baseline prior to treatment, immediately before each injection, and at the conclusion of the treatment period to assess any potential effects of compound 1 on growth and overall health.
After the treatment phase, mice were humanely euthanized using approved methods to minimize distress. Major organs, including the spleen, liver, lungs, brain, heart, and kidneys, were carefully excised, weighed, and subjected to morphological examination to identify any structural abnormalities or pathological changes. The organ coefficients were calculated using the following formula:Organ Coefficient (mg/10 g) = 10 × […]/weight of the mouse.
Blood samples were collected post-euthanasia using heparinized tubes to prevent coagulation. Following collection, samples were centrifuged at 1500 rpm for 7 min to separate the plasma, which was then used for biochemical analysis. A clinical chemistry analyzer measured various parameters, including transaminases (AST, ALT), creatinine, uric acid, and key electrolytes (sodium, potassium, chloride, calcium, and phosphorus), alongside alkaline phosphatase levels. Hematological evaluations were performed, including red blood cell (RBC) counts, hemoglobin (HB) levels, hematocrit (HCT), mean corpuscular hemoglobin (MCH), and white blood cell (WBC) counts.

[6] = Hydrolytic stability test by 1H NMR; type: physicochemical
Method: ^1H NMR spectra were recorded at 298 K on a Bruker Avance 400 spectrometer operating at 400 MHz (^1H) and referred to the residual proton deuterated solvent peaks (^1H: (CD3)2SO, δ 2.50).
The hydrolytic chemical stability is an important step in early drug discovery for ensuring the potential development of compounds useful in therapy. […]

Compound: Cc1cc(C=NN=Cc2cc(C)c3[nH]c4ccc(Br)cc4c3c2C)c(C)c2c1[nH]c1ccc(Br)cc12 [Compound 1, N,N’-bis-(6-bromo-1,4-dimethyl-9H-carbazol-3-ylmethylene)-hydrazine]
- IC50 [1]: 600 ± 300 nM
- SI MCF-7 [1]: >166.7
- IC50 [2]: 300 ± 200 nM
- SI MDA-MB-231 ([2]; ratio of IC50 values for normal (MCF-10A) and cancer cells (MDA-MB-231)): >333.3
- IC50 [3]: > 100000 nM
- TUNEL staining (nuclear DNA damage) (MDA-MB-231 cells): TUNEL-positive
- increase of caspase-3 and -7 activity (caspase-3/7): about 70%
- increase of caspase-8 activity (caspase-8): about 60%
- increase of caspase-9 activity (caspase-9): 40%
- Bid localization (Bid): net translocation of Bid into the mitochondrial compartment
- effect on tubulin polymerization reaction (tubulin; 1 µM): acts as a microtubule stabilizer
- final OD350 value of tubulin polymerization (tubulin; 1 µM): 0.48
- microtubule network morphology ([4]; 0.3 µM): net disorganization of the microtubule network
- actin network morphology [5]: formation of thicker actin bundles
- behavior (Balb/c mice; one week): normal behavioral patterns
- lung coefficient versus negative control (Balb/c mice; one week): notable increase
- toxic effects related to treatment (Balb/c mice; one week): no observable toxic effects
- body weight change versus negative control (Balb/c mice; one week, p > 0.05): no significant differences
- hematological parameters (WBC, RBC, HB, HCT, MCV, MCH, MCHC, platelet counts) versus control (Balb/c mice; one week, p > 0.05): no significant differences
- organ weights (spleen, liver, brain, heart, kidney, lung) versus negative control (Balb/c mice; one week, p > 0.05): no significant differences
- serum AST, ALT, creatinine, uric acid and electrolyte profiles versus control (Balb/c mice; one week, p > 0.05): comparable
- organ weight coefficient Brain (Balb/c mice; three injections over one week): 0.13 ± 0.03 10× g (organ)/g(animal)
- organ weight coefficient Heart (Balb/c mice; three injections over one week): 0.06 ± 0.01 10× g (organ)/g(animal)
- organ weight coefficient Kidney (Balb/c mice; three injections over one week): 0.07 ± 0.01 10× g (organ)/g(animal)
- organ weight coefficient Liver (Balb/c mice; three injections over one week): 0.54 ± 0.03 10× g (organ)/g(animal)
- organ weight coefficient Lung (Balb/c mice; three injections over one week): 0.11 ± 0.01 10× g (organ)/g(animal)
- organ weight coefficient Spleen (Balb/c mice; three injections over one week): 0.07 ± 0.02 10× g (organ)/g(animal)
- hydrolytic stability (1H NMR spectra changes) ([6]; DMSO-d6/D2O (90:10), 37 °C, 24 h): no changes were recorded
- stability in the solid state ([6]; solid state): stable in the solid state even years after synthesis

- IC50 [1]: 13 nM
- IC50 [2]: 19 nM
Compound: CC(=O)O[C@H]1C(=O)[C@@]2(C)[C@H]([C@H](OC(=O)c3ccccc3)[C@]3(O)C[C@H](OC(=O)[C@H](O)[C@@H](NC(=O)c4ccccc4)c4ccccc4)C(C)=C1C3(C)C)[C@]1(OC(C)=O)CO[C@@H]1C[C@@H]2O [Paclitaxel]
- SI MCF-7 [1]: 33.7
- IC50 [3]: 640 nM
- final OD350 value of tubulin polymerization (tubulin; 10 µM): about 0.46
- microtubule network morphology ([4]; 1 µM): massive formation of tubulin bundles and bulker fibers

Compound: Cc1c2ccncc2c(C)c2c1[nH]c1ccccc12 [Ellipticine]
- IC50 [1]: 1300 ± 200 nM
- SI MCF-7 [1]: 0.9
- IC50 [2]: 1900 ± 100 nM
- IC50 [3]: 1200 ± 300 nM

- IC50 [1]: 36.8 nM
- IC50 [2]: 130 nM
Compound: CC[C@]1(O)C[C@@H]2CN(CCc3c([nH]c4ccccc34)[C@@](C(=O)OC)(c3cc4c(cc3OC)N(C)[C@H]3[C@@](O)(C(=O)OC)[C@H](OC(C)=O)[C@]5(CC)C=CCN6CC[C@]43[C@@H]65)C2)C1 [Vinblastine]
- SI MCF-7 [1]: 0.13
- IC50 [3]: 17.2 nM
- effect on tubulin polymerization reaction (tubulin; 10 µM): strongly inhibited
- time to reach the steady state of tubulin polymerization (tubulin; 10 µM): 35 to 40 min
- final OD350 value of tubulin polymerization (tubulin; 10 µM): about 0.2
- microtubule network morphology ([4]; 1 µM): accumulate in disorganized dotted structures (i.e., crystals)
